Experimental data reported in ChEMBL document CHEMBL5126508, “Therapeutic potential of quinazoline derivatives for Alzheimer's disease: A comprehensive review” (Eur J Med Chem, 2022).

Columns and labels:
[1] = Ratio of IC50 for equine BuChE to IC50 for electric eel AChE
Cholinesterase [2] = molecular target: T1, Cholinesterase (Equus caballus, UniProt P81908); assay: Inhibition of equine serum BuChE
Acetylcholinesterase [3] = molecular target: T2, Acetylcholinesterase (Electrophorus electricus, UniProt O42275); assay: Inhibition of electric eel AChE
Acetylcholinesterase [4] = molecular target: T3, Acetylcholinesterase (Homo sapiens, UniProt P22303); assay: Inhibition of human AChE
Acetylcholinesterase [5] = molecular target: T3, Acetylcholinesterase; assay: Inhibition of AChE (unknown origin)
Cholinesterase [6] = molecular target: T4, Cholinesterase (Homo sapiens, UniProt P06276); assay: Inhibition of BuChE (unknown origin)
Acetylcholinesterase [7] = molecular target: T2, Acetylcholinesterase; assay: Inhibition of electric eel AChE using acetylthiocholine incubated for 30 mins by measuring hydrolysis of substrate by Ellman's method
[8] = molecular target: Cyclin-dependent kinase 1 (Homo sapiens, UniProt P06493); assay: Inhibition of CDK1 (unknown origin)
[9] = molecular target: T5, Cyclin-dependent kinase 5 (Homo sapiens, UniProt Q00535); assay: Inhibition of CDK5 (unknown origin)
Target sequence in this assay (Q00535 whole entry): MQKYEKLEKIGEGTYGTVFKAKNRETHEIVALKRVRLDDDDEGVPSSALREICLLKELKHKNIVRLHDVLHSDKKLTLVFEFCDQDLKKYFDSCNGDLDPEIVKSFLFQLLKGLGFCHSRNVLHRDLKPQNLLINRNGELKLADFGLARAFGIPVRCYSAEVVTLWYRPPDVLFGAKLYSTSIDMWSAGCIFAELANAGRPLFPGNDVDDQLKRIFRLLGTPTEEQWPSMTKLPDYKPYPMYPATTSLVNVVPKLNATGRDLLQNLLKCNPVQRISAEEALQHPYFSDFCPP

[10] = molecular target: T6, Glycogen synthase kinase-3 (Homo sapiens, UniProt P49840+P49841); assay: Inhibition of GSK3alpha/beta (unknown origin); assay type: protein assay
[11] = molecular target: T5, Cyclin-dependent kinase 5; assay: Inhibition of CDK5 (unknown origin) at 1 uM relative to control
Target sequence in this assay (Q00535 whole entry, looked up): as the sequence (Q00535 whole entry) above

[12] = molecular target: T6, Glycogen synthase kinase-3; assay: Inhibition of GSK3alpha/beta (unknown origin) at 1 uM relative to control; assay type: protein assay
[13] = molecular target: Dual specificity tyrosine-phosphorylation-regulated kinase 1A (Homo sapiens, UniProt Q13627); assay: Inhibition of DYRK1A (unknown origin)
[14] = molecular target: T7, Casein kinase I delta/epsilon (Homo sapiens, UniProt P48730+P49674); assay: Inhibition of CK1delta/epsilon (unknown origin); assay type: protein-complex assay
Acetylcholinesterase [15] = molecular target: T3, Acetylcholinesterase; assay: Inhibition of AChE (unknown origin) by Ellman's method
[16] = molecular target: T8, Amyloid-beta precursor protein (Homo sapiens, UniProt P05067); assay: Inhibition of amyloid beta 1 to 42 (unknown origin) […]
[17] = molecular target: T9, Amine oxidase [flavin-containing] A (Homo sapiens, UniProt P21397); assay: Inhibition of MAO-A (unknown origin)
T9 sequence (P21397 whole entry): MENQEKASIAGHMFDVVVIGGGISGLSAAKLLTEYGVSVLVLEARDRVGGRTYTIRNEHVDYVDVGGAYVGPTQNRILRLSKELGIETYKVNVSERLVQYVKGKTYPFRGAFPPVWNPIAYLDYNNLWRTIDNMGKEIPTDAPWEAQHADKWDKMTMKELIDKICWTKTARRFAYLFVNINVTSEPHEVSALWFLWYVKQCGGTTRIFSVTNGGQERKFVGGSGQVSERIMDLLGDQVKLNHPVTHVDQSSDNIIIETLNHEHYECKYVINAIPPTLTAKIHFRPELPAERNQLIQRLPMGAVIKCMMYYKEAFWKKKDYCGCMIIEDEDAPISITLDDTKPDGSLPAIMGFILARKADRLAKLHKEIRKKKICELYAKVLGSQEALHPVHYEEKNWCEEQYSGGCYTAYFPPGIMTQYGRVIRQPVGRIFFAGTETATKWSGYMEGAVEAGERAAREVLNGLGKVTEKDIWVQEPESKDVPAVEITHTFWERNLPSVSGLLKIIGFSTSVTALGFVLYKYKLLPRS

Cholinesterase [18] = molecular target: T4, Cholinesterase; assay: Inhibition of BuChE (unknown origin) by Ellman's method
Beta-secretase 1 [19] = molecular target: T10, Beta-secretase 1 (Homo sapiens, UniProt P56817); assay: Inhibition of recombinant human BACE1 in human SH-SY5Y cells using fluorogenic 7-methoxycoumarin-4-yl)acetyl-Ser-Glu-Val-Asn-Leu-Asp-Ala-Glu-Phe-ArgLys(2, 4-dinitrophenyl)-Arg-Arg-NH2 as substrate measured every 5 mins for 120 mins by WCA; assay type: cell-based
Beta-secretase 1 [20] = molecular target: T10, Beta-secretase 1; assay: Inhibition of recombinant human BACE1 using fluorogenic 7-methoxycoumarin-4-yl)acetyl-Ser-Glu-Val-Asn-Leu-Asp-Ala-Glu-Phe-ArgLys(2, 4-dinitrophenyl)-Arg-Arg-NH2 as substrate measured every 5 mins for 120 mins by CFA
SH-SY5Y = assay: Cytotoxicity against human SH-SY5Y cells; assay type: functional, cell-based
[21] = Inhibition of PDE7 (unknown origin); set-up: species or system Homo sapiens
Cholinesterase [22] = molecular target: T1, Cholinesterase; assay: Inhibition of equine serum BuChE incubated measured after 25 mins by spectrophotometric analysis; assay type: cell-free
Acetylcholinesterase [23] = molecular target: T2, Acetylcholinesterase; assay: Inhibition of electric eel AChE incubated measured after 25 mins by spectrophotometric analysis
[24] = Ratio of IC50 for electric eel AChE to ratio of IC50 for equine BuChE
[25] = Antioxidant activity assessed as radical scavenging at 100 ug/ml by DPPH assay relative to control; assay type: functional
[26] = molecular target: T8, Amyloid-beta precursor protein; assay: Inhibition of amyloid beta 1 to 42 aggregation in human SH-SY5Y cells; assay type: cell-based
[27] = molecular target: T8, Amyloid-beta precursor protein; assay: Inhibition of amyloid beta 1 to 40 aggregation in human SH-SY5Y cells; assay type: cell-based
Cholinesterase [28] = molecular target: T4, Cholinesterase; assay: Inhibition of BuChE (unknown origin) at 100 uM relative to control
Acetylcholinesterase [29] = molecular target: T2, Acetylcholinesterase; assay: Inhibition of electric eel AChE incubated for 25 mins by Ellman's method
[30] = molecular target: T7, Casein kinase I delta/epsilon; assay: Inhibition of CK1delta/epsilon (unknown origin) at 1 uM relative to control; assay type: protein-complex assay

T1 sequence (P81908 whole entry): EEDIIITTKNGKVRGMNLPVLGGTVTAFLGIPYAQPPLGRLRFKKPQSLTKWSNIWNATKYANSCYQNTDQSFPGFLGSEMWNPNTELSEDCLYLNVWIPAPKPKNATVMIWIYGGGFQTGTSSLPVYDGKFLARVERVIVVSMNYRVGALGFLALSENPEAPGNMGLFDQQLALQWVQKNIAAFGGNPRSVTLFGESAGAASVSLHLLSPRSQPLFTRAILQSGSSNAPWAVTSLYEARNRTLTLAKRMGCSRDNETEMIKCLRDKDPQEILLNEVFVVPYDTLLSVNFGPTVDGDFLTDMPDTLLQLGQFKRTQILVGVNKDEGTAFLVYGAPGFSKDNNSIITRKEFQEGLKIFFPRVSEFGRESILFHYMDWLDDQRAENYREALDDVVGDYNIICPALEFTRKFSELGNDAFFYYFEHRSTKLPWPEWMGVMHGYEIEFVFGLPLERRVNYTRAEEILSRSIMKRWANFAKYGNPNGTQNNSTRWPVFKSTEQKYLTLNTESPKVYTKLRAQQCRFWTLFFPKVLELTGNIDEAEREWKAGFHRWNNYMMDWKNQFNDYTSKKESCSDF
T10 sequence (P56817 whole entry): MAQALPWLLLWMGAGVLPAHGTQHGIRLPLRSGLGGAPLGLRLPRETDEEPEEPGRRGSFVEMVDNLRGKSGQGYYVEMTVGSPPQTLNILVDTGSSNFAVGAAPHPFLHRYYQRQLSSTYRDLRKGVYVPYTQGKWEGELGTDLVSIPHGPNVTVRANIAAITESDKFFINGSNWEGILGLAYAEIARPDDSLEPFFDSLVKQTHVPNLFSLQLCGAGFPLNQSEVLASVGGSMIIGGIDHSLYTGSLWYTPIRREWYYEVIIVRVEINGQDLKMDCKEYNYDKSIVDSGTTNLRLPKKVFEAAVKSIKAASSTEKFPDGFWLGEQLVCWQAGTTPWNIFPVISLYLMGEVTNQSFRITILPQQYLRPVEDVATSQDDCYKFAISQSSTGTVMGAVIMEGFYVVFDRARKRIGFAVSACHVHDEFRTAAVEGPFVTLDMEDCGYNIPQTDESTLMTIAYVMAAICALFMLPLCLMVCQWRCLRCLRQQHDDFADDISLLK
T4 sequence (P06276 whole entry): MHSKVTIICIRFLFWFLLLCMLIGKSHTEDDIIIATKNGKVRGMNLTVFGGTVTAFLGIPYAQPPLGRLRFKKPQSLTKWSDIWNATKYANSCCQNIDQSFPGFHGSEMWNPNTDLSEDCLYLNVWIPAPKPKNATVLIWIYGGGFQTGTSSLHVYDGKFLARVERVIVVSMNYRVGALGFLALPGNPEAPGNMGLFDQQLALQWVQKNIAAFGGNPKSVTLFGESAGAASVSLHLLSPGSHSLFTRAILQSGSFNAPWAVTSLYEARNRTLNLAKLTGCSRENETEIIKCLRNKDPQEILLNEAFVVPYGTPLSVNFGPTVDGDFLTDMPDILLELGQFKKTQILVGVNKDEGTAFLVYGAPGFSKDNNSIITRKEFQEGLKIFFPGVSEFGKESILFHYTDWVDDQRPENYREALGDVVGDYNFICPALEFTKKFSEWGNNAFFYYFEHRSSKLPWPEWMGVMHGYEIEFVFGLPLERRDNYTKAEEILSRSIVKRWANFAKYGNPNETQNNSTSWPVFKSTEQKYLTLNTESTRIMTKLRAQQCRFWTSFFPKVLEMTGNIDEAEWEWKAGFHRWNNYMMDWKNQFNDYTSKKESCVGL
T8 sequence (P05067 whole entry): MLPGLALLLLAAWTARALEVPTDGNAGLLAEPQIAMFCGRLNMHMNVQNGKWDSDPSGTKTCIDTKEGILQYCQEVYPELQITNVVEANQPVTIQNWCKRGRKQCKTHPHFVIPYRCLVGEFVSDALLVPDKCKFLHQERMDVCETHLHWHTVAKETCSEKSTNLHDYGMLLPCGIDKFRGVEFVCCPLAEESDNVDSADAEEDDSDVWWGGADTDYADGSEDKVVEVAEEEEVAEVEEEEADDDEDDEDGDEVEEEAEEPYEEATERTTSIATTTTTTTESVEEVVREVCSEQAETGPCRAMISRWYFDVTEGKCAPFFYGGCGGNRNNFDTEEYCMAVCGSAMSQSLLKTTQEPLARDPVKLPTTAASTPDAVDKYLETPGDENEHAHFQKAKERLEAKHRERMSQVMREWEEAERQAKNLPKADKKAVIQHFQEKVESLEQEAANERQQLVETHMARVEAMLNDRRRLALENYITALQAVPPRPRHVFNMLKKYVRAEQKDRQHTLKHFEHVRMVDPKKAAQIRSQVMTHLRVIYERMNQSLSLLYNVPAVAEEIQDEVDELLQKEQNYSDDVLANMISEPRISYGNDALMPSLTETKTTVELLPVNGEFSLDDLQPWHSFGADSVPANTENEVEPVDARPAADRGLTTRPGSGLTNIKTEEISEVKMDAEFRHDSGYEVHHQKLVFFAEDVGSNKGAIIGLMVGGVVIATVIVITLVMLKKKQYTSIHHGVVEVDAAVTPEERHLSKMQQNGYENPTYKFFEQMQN
T2 sequence (O42275 whole entry): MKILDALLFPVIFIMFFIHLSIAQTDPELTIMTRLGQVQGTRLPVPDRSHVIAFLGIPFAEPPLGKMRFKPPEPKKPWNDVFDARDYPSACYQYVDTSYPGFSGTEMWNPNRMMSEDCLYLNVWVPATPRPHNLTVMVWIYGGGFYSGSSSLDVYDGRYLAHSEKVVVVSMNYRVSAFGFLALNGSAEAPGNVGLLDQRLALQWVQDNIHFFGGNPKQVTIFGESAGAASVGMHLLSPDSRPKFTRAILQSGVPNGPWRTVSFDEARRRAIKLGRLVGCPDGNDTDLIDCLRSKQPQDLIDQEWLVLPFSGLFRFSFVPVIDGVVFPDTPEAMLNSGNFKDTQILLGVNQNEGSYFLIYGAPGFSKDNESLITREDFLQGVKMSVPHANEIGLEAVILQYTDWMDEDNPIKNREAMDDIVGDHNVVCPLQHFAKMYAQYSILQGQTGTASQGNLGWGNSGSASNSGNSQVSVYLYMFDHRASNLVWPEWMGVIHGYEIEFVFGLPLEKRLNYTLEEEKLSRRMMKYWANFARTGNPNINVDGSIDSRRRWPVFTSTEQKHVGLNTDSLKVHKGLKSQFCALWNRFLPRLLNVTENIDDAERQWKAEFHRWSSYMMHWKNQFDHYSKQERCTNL
T3 sequence (P22303 whole entry): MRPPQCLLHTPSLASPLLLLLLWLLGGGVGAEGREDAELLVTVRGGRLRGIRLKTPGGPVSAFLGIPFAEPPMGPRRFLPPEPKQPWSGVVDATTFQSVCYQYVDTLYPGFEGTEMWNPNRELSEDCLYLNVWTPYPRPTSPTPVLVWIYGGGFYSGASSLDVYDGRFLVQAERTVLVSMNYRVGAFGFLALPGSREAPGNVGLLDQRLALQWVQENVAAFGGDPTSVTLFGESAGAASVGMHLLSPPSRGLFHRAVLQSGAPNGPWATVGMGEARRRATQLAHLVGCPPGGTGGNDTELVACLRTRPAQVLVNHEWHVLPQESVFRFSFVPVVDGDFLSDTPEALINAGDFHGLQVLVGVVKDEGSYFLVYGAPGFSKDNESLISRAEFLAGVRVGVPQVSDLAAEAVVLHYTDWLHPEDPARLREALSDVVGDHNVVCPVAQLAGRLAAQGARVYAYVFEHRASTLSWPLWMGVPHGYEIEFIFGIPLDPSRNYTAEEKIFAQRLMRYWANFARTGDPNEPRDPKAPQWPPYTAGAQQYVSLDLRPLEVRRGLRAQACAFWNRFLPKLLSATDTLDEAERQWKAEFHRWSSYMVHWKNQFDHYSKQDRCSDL
Sequence of Cyclin-dependent kinase 1 (P06493 whole entry): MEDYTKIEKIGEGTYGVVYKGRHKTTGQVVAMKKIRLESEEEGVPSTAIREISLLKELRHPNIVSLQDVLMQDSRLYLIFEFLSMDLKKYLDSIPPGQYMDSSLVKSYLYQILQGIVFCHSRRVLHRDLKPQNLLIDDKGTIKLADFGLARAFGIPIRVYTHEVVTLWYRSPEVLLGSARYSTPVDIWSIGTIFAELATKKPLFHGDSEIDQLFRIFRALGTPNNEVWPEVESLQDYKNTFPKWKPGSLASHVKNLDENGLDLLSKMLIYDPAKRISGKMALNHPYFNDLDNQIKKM

c1cc2c(cc1OCCCN1CCCCC1)CN1CCCC1=N2
Ratio IC50 [1]: 1.76
IC50 (Cholinesterase [2]): 122 nM
IC50 (Acetylcholinesterase [3]): 69.2 nM
IC50 (Acetylcholinesterase [4]): 1100 nM

OC1CCN2Cc3ccccc3N=C12 (stereo unspecified)
IC50 (Acetylcholinesterase [5]): 13700 nM
IC50 (Cholinesterase [6]): 2600 nM

CN1C(=O)C2(Nc3cc(Cl)ccc3-c3ccnn32)c2cc(Cl)ccc21 (stereo unspecified)
IC50 (Acetylcholinesterase [7]): 88200 nM
IC50 (Cholinesterase [6]): 219000 nM

c1ccc2c(c1)CN1Cc3cc(OCCCN4CCCCC4)ccc3N=C21
Ratio IC50 [1]: 600
IC50 (Cholinesterase [2]): 4140 nM
IC50 (Acetylcholinesterase [3]): 6.9 nM
IC50 (Acetylcholinesterase [4]): 142 nM

COC(=N)c1nc2ccc3ncnc(Nc4ccc5c(c4)OCO5)c3c2s1
IC50 [8]: > 10000 nM
IC50 [9]: > 10000 nM
IC50 [10]: 660 nM

Nc1ncc2cc3cnccc3cc2n1
inhibition [11]: > 10%
inhibition [12]: > 10%
IC50 [13]: 180 nM
IC50 [14]: 800 nM

COc1cc2c(Nc3ccc(C(=O)/C=C/c4nc(C)c(C)nc4C)cc3)ncnc2c(OC)c1OC
IC50 (Acetylcholinesterase [15]): 100 nM
IC50 [16]: 26700 nM
IC50 [17]: 47400 nM
IC50 (Cholinesterase [18]): 22400 nM

CC1c2cc(Oc3ccccc3)ccc2N=C(N)N1CCCC(=O)N(Cc1cnn(C)c1)C1CCCCC1 (stereo unspecified)
IC50 (Beta-secretase 1 [19]): 140 nM
IC50 (Beta-secretase 1 [20]): 380 nM
IC50 (SH-SY5Y): 12500 nM

O=c1c2ccccc2nc2n1CCC2 [DEOXYVASICINONE]
IC50 (Acetylcholinesterase [5]): 35200 nM
IC50 (Cholinesterase [6]): 17800 nM

O=c1c2cccc(Cl)c2[nH]c(=S)n1-c1ccccc1Br
IC50 [21]: 1800 nM

c1ccc2c(c1)CCN1Cc3cc(OCCCN4CCCCC4)ccc3N=C21
Ratio IC50 [1]: 174
IC50 (Cholinesterase [2]): 955 nM
IC50 (Acetylcholinesterase [3]): 5.5 nM
IC50 (Acetylcholinesterase [4]): 216 nM

CC1(c2ccc(Cl)cc2)NC(=O)c2cc(Br)cc(Br)c2N1 (stereo unspecified)
IC50 (Cholinesterase [22]): 3700 nM
IC50 (Acetylcholinesterase [23]): 1600 nM
Ratio IC50 [24]: 2.3

CSc1nc2nc(NN)c3ccccc3n2n1
inhibition [25]: 85.9%

O=c1[nH]c(CCCO)nc2ccccc12
IC50 (Acetylcholinesterase [5]): 155000 nM
IC50 (Cholinesterase [6]): 105000 nM

COc1cc(/C=C/c2nc3cc(Cl)ccc3c(=O)[nH]2)ccc1-n1cnc(C)c1
IC50 [26]: 660 nM
IC50 [27]: > 10000 nM

CSc1nc2nc(N/N=C/c3cccnc3)c3ccccc3n2n1
inhibition [25]: 62%

O=c1c2ccccc2nc2n1C(C1CN=Cc3[nH]c4ccccc4c31)CC2O (stereo unspecified)
IC50 (Acetylcholinesterase [5]): 40500 nM
IC50 (Cholinesterase [6]): 9260 nM

Cc1ccccc1-n1c(SCC(=O)N/N=C/c2ccc(Br)cc2)nc2ccccc2c1=O
inhibition (Cholinesterase [28]): 6.8%
IC50 (Acetylcholinesterase [29]): 210000 nM

Nc1ncc2ccc3ccncc3c2n1
inhibition [11]: 100%
inhibition [12]: 98%
inhibition [30]: 98%
IC50 [13]: 2180 nM

CSc1nc2nc(NNC(=S)NC3CCCCC3)c3ccccc3n2n1
inhibition [25]: 91.2%

COC(=N)c1nc2ccc3ncnc(Nc4ccc(OC)cc4)c3c2s1
IC50 [8]: > 10000 nM
IC50 [9]: > 10000 nM
IC50 [10]: 200 nM

c1cc2c(cc1OCCCN1CCCCC1)CN1CCCCC1=N2
Ratio IC50 [1]: 0.197
IC50 (Cholinesterase [2]): 6.55 nM
IC50 (Acetylcholinesterase [3]): 33.3 nM
IC50 (Acetylcholinesterase [4]): 225 nM

Cn1cc(CN(C(=O)CCCN2C(N)=Nc3ccc(Oc4ccccc4)cc3C2CC2CCCCC2)C2CCCCC2)cn1 (stereo unspecified)
IC50 (Beta-secretase 1 [19]): 140 nM
IC50 (Beta-secretase 1 [20]): 490 nM
IC50 (SH-SY5Y): 11800 nM
